Reference: patent US20260293902A1, “METHODS OF CONTROLLING OR PREVENTING INFESTATION OF PLANTS BY THE PHYTOPATHOGENIC MICROORGANISM CORYNESPORA CASSIICOLA” (SYNGENTA CROP PROTECTION AG, priority 2023, published 2026)

Experiments:
Corynespora cassiicola [1] = test: Control of Corynespora cassiicola (target leaf spot) in vitro: inhibition of fungal growth in nutrient broth (PDB); type: cell-based; details: 24° C., 3-4 days, photometric 620 nm, read-out: control of Corynespora cassiicola (inhibition of growth vs untreated control)
Description: Conidia of the fungus from cryogenic storage were directly mixed into nutrient broth (PDB potato dextrose broth). A DMSO solution of the test compounds was placed into a microtiter plate (96-well format) and the nutrient broth containing the fungal spores was added to it. The test plates were incubated at 24° C. and the inhibition of growth (% control of Corynespora cassiicola) was determined photometrically after 3-4 days at 620 nm. The activity of a compound is derived by comparing the inhibition of growth in the treated test solution to the growth in the untreated check. The concentration of the compounds was 6.7, 2.2, 0.74, 0.25, and 0.082 ppm.

Corynespora cassiicola [2] = test: Control of Corynespora cassiicola (target leaf spot) on soybean plants under field conditions; type: in vivo; details: for Control vs. untreated (%) / Mean severity (percentage of leaf area covered by disease lesions): three foliar applications, soybean, Brazil
Description: Tested fungicides were formulated and applied to soybean plants in a foliar broadcast spray using a handheld horizontal boom sprayer. Three applications were made over the course of the growing season, starting 45 days after crop emergence, with following applications at 14-day intervals. Trials were conducted across five locations in Brazil. Assessments of severity of infection from Corynespora cassiicola were made at weekly intervals, based on the percentage of leaf area covered by disease lesions. The results reflect the median scores for these assessments, excluding those with less than 10% severity in the untreated checks to limit the confounding effect of low disease pressure. Values are expressed as the mean disease severity score and as the percentage control relative to the untreated. The comparison is made between Compound A-1.3 at 35 grams active ingredient per hectare and the commercial compounds trifloxystrobin and picoxystrobin at their label rate of 60 grams active ingredient per hectare.

[3] = Trial 1, 60 g/ha, untreated check 24.9
[4] = Trial 2, 60 g/ha, untreated check 18.8

SMILES | inhibition of growth at 6.7 ppm (Corynespora cassiicola [1]) [%] | Control vs. untreated (%) (Corynespora cassiicola [2]; Trial 1, 60 g/ha) | Mean severity (percentage of leaf area covered by disease lesions) (Corynespora cassiicola [2]; [3]) | Control vs. untreated (%) (Corynespora cassiicola [2]; Trial 2, 60 g/ha) | Mean severity (percentage of leaf area covered by disease lesions) (Corynespora cassiicola [2]; [4]) | inhibition of growth at 2.2 ppm (Corynespora cassiicola [1]) [%] | other results
COC(=O)N(OC)c1ccccc1COc1ccn(-c2ccc(Cl)cc2)n1 [pyraclostrobin] | 50 |  |  |  |  |  | 
CON=C(C(=O)OC)c1ccccc1CON=C(C)c1cccc(C(F)(F)F)c1 [trifloxystrobin] | 50 | 35.3 | 18.1 | 6.7 | 16.0 |  | 
CO/C=C(/C(=O)OC)c1ccccc1Oc1cc(Oc2ccccc2C#N)ncn1 [azoxystrobin] | 50 |  |  |  |  |  | 
CO/C=C(/C(=O)OC)c1ccccc1COc1cccc(C(F)(F)F)n1 [Picoxystrobin, picoxystrobin] |  | 45.9 | 14.8 | 20.0 | 14.0 |  | 
COC(=O)NCc1cc(-c2ccn(-c3c(F)cc(C4CC4)cc3F)n2)ccc1C [Compound A-1.3, methyl N-[[5-[1-(4-cyclopropyl-2,6-difluoro-phenyl)pyrazol-3-yl]-2-methyl-phenyl]methyl]carbamate] | ≥ 70 |  |  |  |  | ≥ 50 | inhibition of growth at 0.74 ppm (Corynespora cassiicola [1]; 0.74 ppm): ≥ 50%; Control vs. untreated (%) (Corynespora cassiicola [2]; Trial 1, 35 g/ha): 63.9%; Mean severity (percentage of leaf area covered by disease lesions) (Corynespora cassiicola [2]; Trial 1, 35 g/ha, untreated check 24.9): 9.9; Control vs. untreated (%) (Corynespora cassiicola [2]; Trial 2, 35 g/ha): 68.0%; Mean severity (percentage of leaf area covered by disease lesions) (Corynespora cassiicola [2]; Trial 2, 35 g/ha, untreated check 18.8): 5.3; control of Corynespora cassiicola compared with commercial compounds, in words (Corynespora cassiicola [2]; field trials 1 and 2, 35 g/ha vs trifloxystrobin and picoxystrobin at 60 g/ha): better control of Corynespora cassiicola than both trifloxystrobin and picoxystrobin
COC(=O)NCc1cc(-c2ccn(-c3c(F)cc(C(C)C)cc3F)n2)ccc1C [Compound A-1.1, methyl N-[[5-[1-(2,6-difluoro-4-isopropyl-phenyl)pyrazol-3-yl]-2-methyl-phenyl]methyl]carbamate] | ≥ 50 |  |  |  |  | ≥ 50 | 
